This is an account of results in publication PMC7531004, “Discovery of gramicidin A analogues with altered activities by multidimensional screening of a one-bead-one-compound library” (Nature Communications, 2020).

A short description of data set [1]: H+/Na+ transport assay of bead-derived peptides (one-point).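 Note: relative to parent gramicidin A activity set to 1.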 The class given is biochemical. Set-up: key: relative activity; mean of two control wells = 1.00. Particulars: bead-derived peptide solution, EYPC/EYPG LUVs. Put shortly: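 H+/Na+ transport is monitored through pyranine fluorescence in freshly extruded LUVs after a 30-min room-temperature vortex with each library peptide at a single concentration. Signals are normalized to detergent (Triton X-100) and untreated controls.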

In data set [2] the test system is Streptococcus pyogenes SSI-9. Nature of the data set: Antibacterial activity assay of bead-derived peptides (three concentrations). The data set is classed as cell-based. Set-up: key: +++: inhibition by the 640-fold diluted peptide solution; ++: inhibition by the 160-fold diluted solution; +: inhibition by the 40-fold diluted solution; -: no inhibition. The settings on record: S. pyogenes, bead-derived peptide solution, three concentrations. The method, boiled down:
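First, each peptide stock was diluted 4- and 16-fold in DMSO; next, the three solutions were mixed with S. pyogenes SSI-9 suspension (2 × 10^5 CFU) in cation-adjusted Mueller Hinton Broth plus 5% laked horse blood; finally, plates stood 18 h at 37 °C before checking for grown-cell precipitation.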

The subject of data set [3] is P388 mouse leukemia cells. Particulars: 92 h. The method, boiled down:
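Peptide stocks diluted 250× in growth medium; P388 cells 1 × 10^4 cells/mL final; 37 °C, 5% CO2, 92 h. WST-1 + 1-methoxy PMS, 4 h, A415. Output: % viability.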

Where a SMILES comes first, the peptide text is derived from it. [ ]: non-standard residue; d: D form. The star is where a group is joined. NHCH2CH2OH = OCCN*; For = O=C*

Regarding `CC(C)C[C@@H](NC(=O)[C@H](Cc1c[nH]c2ccccc12)NC(=O)[C@@H](CC(C)C)NC(=O)[C@H](Cc1c[nH]c2ccccc12)NC(=O)[C@@H](CC(C)C)NC(=O)[C@H](Cc1c[nH]c2ccccc12)NC(=O)[C@H](NC(=O)[C@@H](NC(=O)[C@H](NC(=O)[C@H](C)NC(=O)[C@H](NC(=O)[C@H](C)NC(=O)CNC(=O)[C@@H](NC=O)C(C)C)C(C)C)C(C)C)C(C)C)[C@H](C)O)C(=O)N[C@@H](Cc1c[nH]c2ccccc12)C(=O)NCCO` [compound 12287] (For-VGA[dV]A[dV]V[dT]W[dL]W[dL]W[dL]W-NHCH2CH2OH), the “H+/Na+ transport activity normalized against the value of 1 (1.00)” value (shortened to “H+/Na+ transport activity normalized”) in data set [1] turned out to be 1.16. In addition, the antibacterial activity entry in data set [2] is “-”. In data set [3], this compound came in with a cell viability/% of 100.0%.

As to `CC(C)C[C@@H](NC(=O)[C@H](Cc1c[nH]c2ccccc12)NC(=O)[C@H](NC(=O)[C@@H](NC(=O)[C@H](NC(=O)[C@H](C)NC(=O)[C@H](NC(=O)[C@H](C)NC(=O)CNC(=O)[C@@H](NC=O)C(C)C)[C@H](C)O)C(C)C)C(C)C)C(C)C)C(=O)N[C@@H](Cc1c[nH]c2ccccc12)C(=O)N[C@@H](C(=O)N[C@@H](Cc1c[nH]c2ccccc12)C(=O)N[C@@H](C(=O)N[C@@H](Cc1c[nH]c2ccccc12)C(=O)NCCO)C(C)C)C(C)C` [compound 12298] (For-VGA[dT]A[dV]V[dV]W[dL]W[dV]W[dV]W-NHCH2CH2OH), the “H+/Na+ transport activity normalized” value in data set [1] was found to be 1.04. Further, in data set [2], the antibacterial activity entry is on record as “-”. In addition, the cell viability/% in data set [3] was found to be 100.0%.

As to `CNC(=O)C[C@@H](NC(=O)[C@@H](NC(=O)[C@@H](CC(C)C)NC(=O)[C@H](C)NC(=O)[C@@H](CC(C)C)NC(=O)[C@H](C)NC(=O)CNC(=O)[C@@H](NC=O)C(C)C)C(C)C)C(=O)N[C@@H](Cc1c[nH]c2ccccc12)C(=O)N[C@@H](C(=O)N[C@@H](Cc1c[nH]c2ccccc12)C(=O)N[C@@H](C(=O)N[C@@H](Cc1c[nH]c2ccccc12)C(=O)N[C@H](CC(C)C)C(=O)N[C@@H](Cc1c[nH]c2ccccc12)C(=O)NCCO)C(C)C)C(C)C` [compound 12307] (For-VGA[dL]A[dL]V[dD](NHMe)W[dV]W[dV]W[dL]W-NHCH2CH2OH), in data set [1], the “H+/Na+ transport activity normalized” value turned out to be 1.32. Moreover, the antibacterial activity result in data set [2] was “-”. Also, the cell viability/% in data set [3] amounted to 100.0%.

For `CNC(=O)C[C@@H](NC(=O)[C@@H](NC(=O)[C@H](NC(=O)[C@H](C)NC(=O)[C@H](NC(=O)[C@H](C)NC(=O)CNC(=O)[C@@H](NC=O)C(C)C)C(C)C)C(C)C)C(C)C)C(=O)N[C@@H](Cc1c[nH]c2ccccc12)C(=O)N[C@H](CC(C)C)C(=O)N[C@@H](Cc1c[nH]c2ccccc12)C(=O)N[C@H](CC(C)C)C(=O)N[C@@H](Cc1c[nH]c2ccccc12)C(=O)N[C@@H](C(=O)N[C@@H](Cc1c[nH]c2ccccc12)C(=O)NCCO)C(C)C` [compound 12373] (For-VGA[dV]A[dV]V[dD](NHMe)W[dL]W[dL]W[dV]W-NHCH2CH2OH), in data set [1], the “H+/Na+ transport activity normalized” value is listed as 1.04. Also, the antibacterial activity entry in data set [2] is reported as “-”. In data set [3], this compound showed a cell viability/% of 100.0%.

Consider `CC(C)C[C@@H](NC(=O)[C@H](C)NC(=O)CNC(=O)[C@@H](NC=O)C(C)C)C(=O)N[C@@H](C)C(=O)N[C@@H](C(=O)N[C@H](C(=O)N[C@@H](C(=O)N[C@@H](Cc1c[nH]c2ccccc12)C(=O)N[C@@H](C(=O)N[C@@H](Cc1c[nH]c2ccccc12)C(=O)N[C@@H](C(=O)N[C@@H](Cc1c[nH]c2ccccc12)C(=O)N[C@@H](C(=O)N[C@@H](Cc1c[nH]c2ccccc12)C(=O)NCCO)C(C)C)C(C)C)C(C)C)[C@H](C)O)C(C)C)C(C)C` [compound 12429] (For-VGA[dL]A[dV]V[dT]W[dV]W[dV]W[dV]W-NHCH2CH2OH), for which the “H+/Na+ transport activity normalized” value in data set [1] is 1.03. The antibacterial activity result in data set [2] is “-”. Besides, the cell viability/% in data set [3] was determined as 100.0%.

On to `CC(C)C[C@@H](NC(=O)[C@H](Cc1c[nH]c2ccccc12)NC(=O)[C@@H](CC(C)C)NC(=O)[C@H](Cc1c[nH]c2ccccc12)NC(=O)[C@H](NC(=O)[C@H](Cc1c[nH]c2ccccc12)NC(=O)[C@@H](CC(C)C)NC(=O)[C@@H](NC(=O)[C@H](NC(=O)[C@H](C)NC(=O)[C@H](NC(=O)[C@H](C)NC(=O)CNC(=O)[C@@H](NC=O)C(C)C)C(C)C)C(C)C)C(C)C)C(C)C)C(=O)N[C@@H](Cc1c[nH]c2ccccc12)C(=O)NCCO` [compound 12538] (For-VGA[dV]A[dV]V[dL]W[dV]W[dL]W[dL]W-NHCH2CH2OH), for which the “H+/Na+ transport activity normalized” value in data set [1] was determined as 1.01. In data set [2], the antibacterial activity entry is recorded as “-”. In data set [3], this compound displayed a cell viability/% of 2.1%.

For the compound `CNC(=O)C[C@@H](NC(=O)[C@@H](NC(=O)[C@@H](CC(C)C)NC(=O)[C@H](C)NC(=O)[C@H](NC(=O)[C@H](C)NC(=O)CNC(=O)[C@@H](NC=O)C(C)C)C(C)C)C(C)C)C(=O)N[C@@H](Cc1c[nH]c2ccccc12)C(=O)N[C@@H](C(=O)N[C@@H](Cc1c[nH]c2ccccc12)C(=O)N[C@@H](C(=O)N[C@@H](Cc1c[nH]c2ccccc12)C(=O)N[C@@H](C(=O)N[C@@H](Cc1c[nH]c2ccccc12)C(=O)NCCO)C(C)C)C(C)C)C(C)C` [compound 12576] (For-VGA[dV]A[dL]V[dD](NHMe)W[dV]W[dV]W[dV]W-NHCH2CH2OH), the “H+/Na+ transport activity normalized” value in data set [1] is recorded as 1.09. Further, the antibacterial activity entry in data set [2] is “-”. This compound also showed a cell viability/% in data set [3] of 100.0%.

As for `CC(C)C[C@@H](NC(=O)[C@H](Cc1c[nH]c2ccccc12)NC(=O)[C@H](NC(=O)[C@H](Cc1c[nH]c2ccccc12)NC(=O)[C@H](NC(=O)[C@H](Cc1c[nH]c2ccccc12)NC(=O)[C@H](NC(=O)[C@@H](NC(=O)[C@H](NC(=O)[C@H](C)NC(=O)[C@H](NC(=O)[C@H](C)NC(=O)CNC(=O)[C@@H](NC=O)C(C)C)C(C)C)C(C)C)C(C)C)C(C)C)C(C)C)C(C)C)C(=O)N[C@@H](Cc1c[nH]c2ccccc12)C(=O)NCCO` [compound 12606] (For-VGA[dV]A[dV]V[dV]W[dV]W[dV]W[dL]W-NHCH2CH2OH), the “H+/Na+ transport activity normalized” value in data set [1] stood at 1.05. Moreover, the antibacterial activity entry in data set [2] is on record as “-”. The same compound registered a cell viability/% in data set [3] of 100.0%.

As to `CNC(=O)C[C@@H](NC(=O)[C@@H](NC(=O)[C@H](NC(=O)[C@H](C)NC(=O)[C@@H](CC(C)C)NC(=O)[C@H](C)NC(=O)CNC(=O)[C@@H](NC=O)C(C)C)C(C)C)C(C)C)C(=O)N[C@@H](Cc1c[nH]c2ccccc12)C(=O)N[C@@H](C(=O)N[C@@H](Cc1c[nH]c2ccccc12)C(=O)N[C@@H](C(=O)N[C@@H](Cc1c[nH]c2ccccc12)C(=O)N[C@H](CC(C)C)C(=O)N[C@@H](Cc1c[nH]c2ccccc12)C(=O)NCCO)C(C)C)C(C)C` [compound 12636] (For-VGA[dL]A[dV]V[dD](NHMe)W[dV]W[dV]W[dL]W-NHCH2CH2OH), the “H+/Na+ transport activity normalized” value in data set [1] worked out at 1.21. Besides, the antibacterial activity result in data set [2] is “-”. In data set [3], this compound registered a cell viability/% of 100.0%.

Turning to `CNC(=O)C[C@@H](NC(=O)[C@@H](NC(=O)[C@@H](CC(C)C)NC(=O)[C@H](C)NC(=O)[C@H](NC(=O)[C@H](C)NC(=O)CNC(=O)[C@@H](NC=O)C(C)C)C(C)C)C(C)C)C(=O)N[C@@H](Cc1c[nH]c2ccccc12)C(=O)N[C@H](CC(C)C)C(=O)N[C@@H](Cc1c[nH]c2ccccc12)C(=O)N[C@@H](C(=O)N[C@@H](Cc1c[nH]c2ccccc12)C(=O)N[C@H](CC(C)C)C(=O)N[C@@H](Cc1c[nH]c2ccccc12)C(=O)NCCO)C(C)C` [compound 12687] (For-VGA[dV]A[dL]V[dD](NHMe)W[dL]W[dV]W[dL]W-NHCH2CH2OH), the “H+/Na+ transport activity normalized” value in data set [1] is on record as 1.29. The antibacterial activity entry in data set [2] is on record as “-”. The cell viability/% in data set [3] was found to be 100.0%.

Turning to `CNC(=O)C[C@@H](NC(=O)[C@H](Cc1c[nH]c2ccccc12)NC(=O)[C@H](NC(=O)[C@H](Cc1c[nH]c2ccccc12)NC(=O)[C@H](NC(=O)[C@H](Cc1c[nH]c2ccccc12)NC(=O)[C@@H](CC(C)C)NC(=O)[C@@H](NC(=O)[C@H](NC(=O)[C@H](C)NC(=O)[C@H](NC(=O)[C@H](C)NC(=O)CNC(=O)[C@@H](NC=O)C(C)C)C(C)C)C(C)C)C(C)C)C(C)C)C(C)C)C(=O)N[C@@H](Cc1c[nH]c2ccccc12)C(=O)NCCO` [compound 12691] (For-VGA[dV]A[dV]V[dL]W[dV]W[dV]W[dD](NHMe)W-NHCH2CH2OH), the “H+/Na+ transport activity normalized” value in data set [1] was 1.11. Besides, the antibacterial activity result in data set [2] was “-”. In data set [3], this compound had a cell viability/% of 100.0%.

`CNC(=O)C[C@@H](NC(=O)[C@@H](NC(=O)[C@@H](CC(C)C)NC(=O)[C@H](C)NC(=O)[C@H](NC(=O)[C@H](C)NC(=O)CNC(=O)[C@@H](NC=O)C(C)C)C(C)C)C(C)C)C(=O)N[C@@H](Cc1c[nH]c2ccccc12)C(=O)N[C@H](CC(C)C)C(=O)N[C@@H](Cc1c[nH]c2ccccc12)C(=O)N[C@@H](C(=O)N[C@@H](Cc1c[nH]c2ccccc12)C(=O)N[C@@H](C(=O)N[C@@H](Cc1c[nH]c2ccccc12)C(=O)NCCO)C(C)C)C(C)C` [compound 12707] (For-VGA[dV]A[dL]V[dD](NHMe)W[dL]W[dV]W[dV]W-NHCH2CH2OH): the “H+/Na+ transport activity normalized” value in data set [1] turned out to be 1.06. Also, the antibacterial activity result in data set [2] was “-”. In data set [3], this compound had a cell viability/% of 100.0%.
